Laboratory results as given in patent US8524744B2, “Arylamine ketones, their preparation methods, the pharmaceutical composition containing them and their use” (Institute of Mataria Medica, Chinese Academy of Medical …, priority 2004, dated 2013).
Where a name gives a salt, the structure may show the parent alone.

Legend:
[1] = test system: rat paw swelling induced by carrageenan; assay: rat paw swelling induced by carrageenan; type: in vivo; details: orally, 100 mg·kg^−1, Wistar rats
Method: Wistar rats (male, 180±20 g) were randomly divided into two groups (treatment and control) with 10 animals for each group. The animals were orally administrated with the compound or solvent, respectively. 1 hr later, 100 μl of 1% carrageenan was intracutaneously injected into the sole of right posterior foot. The perimeter of the ankle joint inflamed was measured at indicated time. The swelling level was evaluated by the difference of perimeters between the inflamed foot and non-inflamed foot.

[2] = test system: angiogenesis of the chronic granulomatous air pouch in mice; assay: angiogenesis of the chronic granulomatous air pouch in mice; type: in vivo, mouse; details: orally
Method: 3 ml of air was injected into the dorsal subcutaneous tissue. 24 hr later, 0.5 ml of 0.1% croton oil in Freund's complete adjuvant was injected into the air pouch. Meanwhile the compound or solvent was orally administrated everyday. At sixth day the mice were anaesthetized and kept at 40° C. for 10 min. 1 ml of 1% carmine red containing 5% gelatin was injected into the tail vein. The animal was kept at 0-4° C. for 2-3 hr. The air-pouch tissue was detached, dried in oven at 56° C. for 48 hr, weighed and cut to small pieces. 2 ml of digesting fluid was added into the tissue. The carmine red was solved by NaOH (5 mol·L^−1). The supernatant was isolated and filtered. The absorbance was measured at 540 nm. The content of carmine red was calculated according to the correct curve.

IgG in serum = assay: IgG (antibody for anti-type II collagen) in serum of rat with arthritis induced by type II collagen; type: in vivo; details: Dose 100 mg · kg^−1 × 13 d, orally
Method: (§1) 0.1 ml of type II H collagen (2 mg·ml^−1) was intracutaneously injected into the hind foot of Wistar rat (male, 100±10 g) (d0). Seven days later 0.1 ml of type II collagen was intracutaneously injected into the root of tail. At 19th day (d19) the animals inflamed were selected to supply the experiment and randomly divided into two groups. […] The perimeter of the ankle joint of two hind feet, weight of body was measured and the systemic inflammation (including the toes of front and hind feet, ears and tails) was judged by scoring every 3 days. At 41th day 40 μl of 0.2% type II collagen was intracutaneously injected into the right ear. Twenty-four hr later the edema level was evaluated by weighing the ponderance of ear piece (diameter: 8 mm). At 42th day the blood was collected by decapitating. The serum was separated by centrifugating. The contents of antibody for anti-type II collagen, cytokine TNF-α, IL-1β in serum were determined by ELISA kit.

[3] = test system: adjuvant arthritis in rat; assay: adjuvant arthritis in rat (therapeutic effect); type: in vivo; details: orally 100 mg·kg^−1 during 19-25th day, SD rats
Method: SD rats (male, 190±10 g) were randomly divided into two groups (treatment and control) with 10 animals for each group. At 0 day 0.1 ml of Freund's complete adjuvant was intracutaneously injected into the right posterior foot. For therapeutic experiment the animals were orally administrated with the compound or solvent during 19-25th day. The perimeter of two ankle joint was measured and the inflammation of anterior foot, ear and tail were judged by scoring for every 3 days until 28 th day.

[4] = test system: polymorphonuclear leucocytes from rat pleural cavity; assay: release of β-glucuronidase by polymorphonuclear leucocytes from rat pleural cavity in vitro (PAF as irritant); type: cell-based
Method in brief: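 Carrageenan-elicited pleural PMNs from Wistar rats (2.5×10^6 cells/ml, Dulbecco's buffer) were incubated with compound 15 min at 37° C, then cytochalasin B 5 min, then PAF 5 min. β-Glucuronidase in supernatant was assayed with phenolphthalein-glucuronic acid, 18 h at 37° C, OD 550 nm after NaOH.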

[5] = test system: production of TNF-α by macrophages from mouse peritoneal cavity; assay: production of TNF-α by macrophages from mouse peritoneal cavity (LPS, L929 bioassay); type: cell-based; details: Macrophage, LPS 10 μg·ml^−1, 24 hr, read-out: IC50, inhibition of the production of TNF-α
Method: The macrophages from mouse peritoneal cavity were prepared as described before. 500 μl of cells were inoculated in 48-well plate which was incubated with 5% CO2 at 37° C. for 2.5 hr. The compounds and LPS (final concentration: 10 μg·ml^−1) were added into each well of the plate. After incubating for 24 hr the supernatant was collected. The content of TNF-α was determined by following method. 100 μl of L929 cells (2×10^5cells·ml^−1) with 100 μl of RPMI-1640 or supernatant collected above were inoculated into 96-well plate which incubated under 5% CO2 at 37° C. for 20 hr. The supernatant was discarded. 200 μl of 0.5% crystal violet was added into each well. 10 min later crystal violet outside of the cells was rinsed using normal saline. The cells were dried under room temperature. 100 μl of 10% SDS was added into each well. After the cells were lysed completely the optical density was measured at 570 nm. The well of 1640 media was as the control, The content of TNF-a was evaluated by the percentage of L929 cells survival.

[6] = test system: rat arthritis induced by type II collagen; assay: rat arthritis induced by type II collagen; type: in vivo; details: 100 mg · kg^−1 × 13 d, orally, Wistar rat
Method: as §1

[7] = test system: macrophages from mouse peritoneal cavity; assay: chemotaxis of macrophages from mouse peritoneal cavity induced by PAF; type: cell-based; details: Macrophage, 2 hr, read-out: IC50, inhibition of chemotaxis
Method: 4% of sodium mercaptoethanol was injected into C57BL/6 mouse peritoneal cavity to induce macrophages. The cells in peritoneal cavity were collected after injection for 3-4 days. 27 μl of irritant was added into the well at low part of the chemotaxis plate. The filter membrane was covered on the wells and the top part of the plate was assembled on the filter. 55 μl of cells suspension with various concentrations of the compounds or solvent was added into the well at top part of the plate. The plate was placed into incubater with 5% CO2 at 37° C. for 2 hr. The filter was taken out, stained by hematoxylin and dehydrated. The cells migrated into the other side of the filter was counted by microscope.

In the case of `CCOC(=O)C1CCN(CCC(=O)/C=C/c2ccc(Cl)cc2)CC1` [Compound 3, 5-[(4-Ethoxycarbonyl)piperidyl]-1-(4-chlorophenyl)-1-penten-3-one hydrochloride], the “Inhibition (%) of rat paw swelling” value ([1]; 1 h) is reported as 49.7%, the “Inhibition (%) of rat paw swelling” value ([1]; 2 h) is reported as 55.5% and the “Inhibition (%) of rat paw swelling” value ([1]; 3 h) is reported as 44.2%. The “Inhibition (%) of rat paw swelling” value ([1]; 4 h) was 29.0%, the “Inhibition (%) of rat paw swelling” value ([1]; 5 h) was 19.4% and the “Inhibition (%) of angiogenesis (content of carmine red)” value (“Inhibition (%) of angiogenesis” below) ([2]; Dose 12.5 mg · kg^−1 × 5 d) was 17.8%. For the same molecule, the “Inhibition (%) of angiogenesis” value ([2]; Dose 25 mg · kg^−1 × 5 d) was 20.6%, the “Inhibition (%) of angiogenesis” value ([2]; Dose 50 mg · kg^−1 × 5 d) was 28.4% and the “Inhibition (%) of production of IgG in serum” value (IgG in serum) was 38.4%. The “Inhibition (%) of adjuvant arthritis” value ([3]; 21th day) was 31.9%, the “Inhibition (%) of adjuvant arthritis” value ([3]; 23th day) was 49.3% and the “Inhibition (%) of adjuvant arthritis” value ([3]; 25th day) was 54.5%. The “Inhibition (%) of adjuvant arthritis” value ([3]; 27th day) was 59.3%, the “Inhibition (%) of β-glucuronidase release” value ([4]; Dose 2 × 10^−6 mol · L^−1, Irritant 1 × 10^−7 mol · L^−1) was 142.96% and the IC50 ([4]; Leucocyte, rat polymorphonuclear leucocytes) was 0.226 nM. For the same molecule, the IC50 [5] was 34 nM, the “Inhibition (%) Score for systemic inflammation” value [6] was 52.6% and the “Inhibition (%) Swelling of left ankle joint” value [6] was 67.5%. The “Inhibition (%) Swelling of right ankle joint” value [6] was 68.8% and the IC50 [7] was 0.477 nM.
